# Data reported in ChEMBL document CHEMBL4342413, “Structure-Activity Relationship Studies of a Novel Class of Transmission Blocking Antimalarials Targeting Male Gametes” (J Med Chem, 2020).
# Active and inactive are the calls of the source. No cut-off for these calls is given here.
# System: Plasmodium falciparum
# Experiment: Antimalarial activity against Plasmodium falciparum NF54 strain male gametes in human RBC incubated for 48 hrs by dual gamete formation assay based HTS assay
# Format: functional, organism-based
# Settings: NF54, 48 h
row,EC50 [nM],SMILES
1,530,O=S(=O)(NCC1(O)CCOc2ccccc21)c1ccccc1Br (racemic)
2,200,O=S(=O)(NCC1(O)CCOc2ccccc21)c1ccc(Br)s1 (racemic)

# System: Plasmodium falciparum
# Experiment: Antimalarial activity against Plasmodium falciparum infected in mosquitoes assessed as inhibition of oocyst formation at 10 uM added 30 mins before mosquito feed by standard membrane feeding assay
# Format: functional
# Settings: not given
row,SMILES,inhibition at 10 µM [%]
1,O=S(=O)(NCC1(O)CCOc2ccccc21)c1ccc(Br)s1 (racemic),99

# System: HepG2
# Experiment: Cytotoxicity against human HepG2 cells assessed as reduction in cell viability at 10 uM incubated for 48 hrs by Alamar Blue staining based fluorescence assay
# Settings: hepg2, 48 h
row,SMILES,Activity
1,O=S(=O)(NCC1(O)CCOc2ccccc21)c1ccc(Br)s1 (racemic),Non-Toxic
2,O=S(=O)(NCC1(O)CCOc2cc(F)ccc21)c1cccc(Br)c1 (racemic),Non-Toxic
3,COC1(CNS(=O)(=O)c2cccc(Br)c2)CCOc2ccccc21 (racemic),Non-Toxic
4,O=S(=O)(NCC1(O)CCOc2ccccc21)c1cccc(Br)c1 (racemic),Non-Toxic

# System: HepG2
# Experiment: Cytotoxicity against human HepG2 cells assessed as reduction in cell viability at 50 uM incubated for 48 hrs by Alamar Blue staining based fluorescence assay
# Format: functional
# Settings: not given
row,SMILES,Activity
1,COc1cccc2c1C(=O)c1c(O)c3c(c(O)c1C2=O)C[C@@](O)(C(=O)CO)C[C@@H]3O[C@H]1C[C@H](N)[C@H](O)[C@H](C)O1,Active

# System: Plasmodium falciparum
# Experiment: Antimalarial activity against Plasmodium falciparum NF54 strain male gametes in human RBC assessed as induction of impairment of exflagellation of male gametes by dual gamete formation assay
# Format: functional, organism-based
# Settings: not given
row,EC50 [nM],SMILES
1,130 to 292,O=S(=O)(NCC1(O)CCOc2ccccc21)c1ccc(Br)s1 (racemic)
2,128,O=S(=O)(NCC1(O)CCOc2ccccc21)c1cccc(Br)c1 (racemic)
3,> 1000,"O=S(=O)(NCC1(O)CCOc2ccccc21)c1ccc(Br)s1 (single isomer, unassigned; (+))"
4,> 2000,"O=S(=O)(NCC1(O)CCOc2ccccc21)c1cccc(Br)c1 (single isomer, unassigned; (+))"
5,46,"O=S(=O)(NCC1(O)CCOc2ccccc21)c1ccc(Br)s1 (single isomer, unassigned; (-))"
6,18,O=S(=O)(NCC1(O)CCOc2ccccc21)c1cccc(Br)c1 (stereo in doubt; (-)-6)

# More lines, now with the values behind:
row,SMILES,EC50 [nM]
1,O=S(=O)(NCC1(O)CCOc2cc(F)ccc21)c1cccc(Br)c1 (racemic),79
2,COC1(CNS(=O)(=O)c2cccc(Br)c2)CCOc2ccccc21 (racemic),149
3,"O=S(=O)(NCC1(O)CCOc2cc(F)ccc21)c1cccc(Br)c1 (single isomer, unassigned; (+))",> 1000
4,"COC1(CNS(=O)(=O)c2cccc(Br)c2)CCOc2ccccc21 (single isomer, unassigned; (+))",> 2000
5,"O=S(=O)(NCC1(O)CCOc2cc(F)ccc21)c1cccc(Br)c1 (single isomer, unassigned; (-))",51
6,COC1(CNS(=O)(=O)c2cccc(Br)c2)CCOc2ccccc21 (stereo in doubt; (-)-74),59

# Same assay, conditions: Plasmodium falciparum, NF54
row,EC50 [nM],SMILES
1,344 to 367,O=S(=O)(NCC1(O)CCOc2ccccc21)c1ccccc1Br (racemic)
2,> 20000,CC(=O)c1cccc(S(=O)(=O)NCC2(O)CCOc3ccccc32)c1 (racemic)
3,470,O=S(=O)(NCC1(O)CCOc2ccccc21)c1ccccc1 (racemic)
4,> 10000,O=S(=O)(NCC1CCOc2ccccc21)c1ccc(Br)s1 (racemic)
5,> 1000,O=S(=O)(NCC1(O)CCOc2ccc(Br)cc21)c1ccc(Br)s1 (racemic)
6,> 1000,O=S(=O)(NCC1(O)CCOc2ccccc21)c1ccccc1Cl (racemic)
7,> 5000,O=S(=O)(NCC1(O)CCOc2ccccc21)c1ccc(Br)cc1 (racemic)
8,> 25000,COc1cccc2c1OCCC2(O)CNS(=O)(=O)c1ccc(Br)s1 (racemic)
9,> 1000,O=S(=O)(NCC1(O)CCOc2ccccc21)c1ccc(Cl)cc1 (racemic)
10,> 25000,N#Cc1ccc(S(=O)(=O)NCC2(O)CCOc3ccccc32)cc1 (racemic)
11,118,O=S(=O)(NCC1(O)CCOc2ccccc21)c1cccc(Cl)c1 (racemic)
12,364,O=S(=O)(NCC1(O)CCOc2cc(F)ccc21)c1ccc(Br)s1 (racemic)
13,196,O=S(=O)(NCC1(O)CCOc2ccc(F)cc21)c1ccc(Br)s1 (racemic)
14,354,COC1(CNS(=O)(=O)c2ccc(Br)s2)CCOc2ccccc21 (racemic)
15,> 25000,COc1ccc(S(=O)(=O)NCC2(O)CCOc3ccccc32)cc1 (racemic)
16,> 1000,O=S(=O)(NCC1(F)CCOc2ccccc21)c1ccc(Br)s1 (racemic)
17,212,O=S(=O)(NCC1(O)CCOc2ccccc21)c1sccc1Br (racemic)

# Second part, the molecule before the results:
row,SMILES,EC50 [nM]
1,O=S(=O)(NCC1=CCOc2ccccc21)c1ccc(Br)s1,> 25000
2,O=S(=O)(NCC1(F)CCOc2ccccc21)c1cccc(Br)c1 (racemic),945
3,C=CCOc1ccc2c(c1)C(O)(CNS(=O)(=O)c1cccc(Br)c1)CCO2 (racemic),> 25000
4,O=S(=O)(NCC1(O)CCOc2ccc(F)cc21)c1cccc(Br)c1 (racemic),83
5,O=S(=O)(NCC1(O)CCOc2ccc(O)cc21)c1cccc(Br)c1 (racemic),> 10000
6,O=S(=O)(NCC1(O)CCOc2ccc(Br)cc21)c1cccc(Br)c1 (racemic),785
7,COc1cccc2c1OCCC2(O)CNS(=O)(=O)c1cccc(Br)c1 (racemic),> 25000
8,O=S(=O)(NCC1CCOc2ccccc21)c1cccc(Br)c1 (racemic),> 10000
9,O=S(=O)(NCC1(O)CC(c2ccccc2)Oc2ccccc21)c1cccc(Br)c1 (racemic),> 25000
10,O=S(=O)(NCC1(O)CC(c2ccccc2)Oc2ccccc21)c1ccc(Br)s1 (racemic),> 25000
